Test results taken from PubChem BioAssay (NCI).
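Test compounds were applied to cells in 96-well plates for 48 hours at 5 doses. GI50: concentration for 50% inhibition of growth. TGI denotes the concentration required for complete inhibition of growth.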

Tests used:
Experiment in all cases: NCI anticancer screen, dose series, 48 h
KM12 colon = tested on: KM12 colon
SN12C renal = tested on: SN12C renal
SK-MEL-2 melanoma = tested on: SK-MEL-2 melanoma
SK-OV-3 ovarian = tested on: SK-OV-3 ovarian
SK-MEL-28 melanoma = tested on: SK-MEL-28 melanoma
SR leukemia = tested on: SR leukemia
LOX IMVI melanoma = tested on: LOX IMVI melanoma
OVCAR-8 ovarian = tested on: OVCAR-8 ovarian
NCI-H226 lung = tested on: NCI-H226 lung
BT-549 breast = tested on: BT-549 breast

SMILES | TGI (KM12 colon) [µM] | TGI (SN12C renal) [µM] | TGI (SK-MEL-2 melanoma) [µM] | TGI (SK-OV-3 ovarian) [µM] | TGI (SK-MEL-28 melanoma) [µM] | TGI (SR leukemia) [µM] | TGI (LOX IMVI melanoma) [µM] | TGI (OVCAR-8 ovarian) [µM] | TGI (NCI-H226 lung) [µM] | TGI (BT-549 breast) [µM] | GI50 (OVCAR-8 ovarian) [µM] | GI50 (KM12 colon) [µM] | GI50 (SN12C renal) [µM] | GI50 (SK-MEL-2 melanoma) [µM] | GI50 (SK-OV-3 ovarian) [µM] | GI50 (SK-MEL-28 melanoma) [µM] | GI50 (SR leukemia) [µM] | GI50 (NCI-H226 lung) [µM] | GI50 (LOX IMVI melanoma) [µM] | GI50 (BT-549 breast) [µM]
Cc1ccc(SSCCCCCS(=O)O)cc1 | > 100 | 49 | 59.2 | > 100 | > 100 | 28.9 | 30.9 | – | – | – | – | – | – | – | – | – | – | – | – | –
CNC(=O)Nc1ccccc1 | > 100 | > 100 | > 100 | – | > 100 | > 100 | > 100 | > 100 | > 100 | > 100 | – | – | – | – | – | – | – | – | – | –
O=C(COc1ccc(Cl)cc1Cl)N/N=C/C=C/c1ccc([N+](=O)[O-])o1 | > 100 | > 100 | > 100 | 59.6 | > 100 | – | 38.9 | 76.6 | > 100 | 58 | – | – | – | – | – | – | – | – | – | –
C[N+](C)(CCO)CCN1c2ccccc2Sc2ccccc21 | > 10 | > 10 | > 10 | > 10 | > 10 | > 10 | > 10 | > 10 | > 10 | – | – | – | – | – | – | – | – | – | – | –
COc1ccc2c(c1)CC[C@@H]1[C@@H]2CC[C@]2(C)C(=O)/C(=C/c3ccc(O)c(OC)c3)C[C@@H]12 | – | – | > 100 | > 100 | > 100 | > 100 | > 100 | > 100 | > 100 | – | – | – | – | – | – | – | – | – | – | –
C[C@]12CCC(=O)C=C1CC[C@@H]1[C@@H]2[C@@H](O)C[C@@]2(C)[C@H]1CC[C@]2(O)C(=O)COC(=O)C1CCCC1 | > 100 | > 100 | > 100 | > 100 | > 100 | > 100 | > 100 | > 100 | > 100 | > 100 | – | – | – | – | – | – | – | – | – | –
O=S(O)c1cc(Cl)cc(Cl)c1OCc1ccccc1 | > 100 | > 100 | > 100 | > 100 | > 100 | > 100 | > 100 | – | – | – | – | – | – | – | – | – | – | – | – | –
COc1cc2c(cc1OC)-c1cc3ccc(OC)c(OC)c3c[n+]1CC2 | > 100 | > 100 | > 100 | > 100 | > 100 | > 100 | – | > 100 | > 100 | > 100 | – | – | – | – | – | – | – | – | – | –
O=C(NNC(=O)c1nsc2ccccc12)c1ccc(Cl)cc1 | 65.7 | 33.7 | 45.7 | – | 36.1 | 75.5 | 36.5 | 72.8 | – | – | – | – | – | – | – | – | – | – | – | –
Nc1nc(=O)n(CC(O)CO)s1 (configuration not stated) | – | > 100 | > 100 | – | – | > 100 | > 100 | > 100 | > 100 | – | – | – | – | – | – | – | – | – | – | –
Clc1ccc(-c2nnc(-c3c(Cl)c(Cl)c(Cl)c(Cl)c3-c3nc4ccccc4[nH]3)o2)cc1 | > 100 | > 100 | > 100 | > 100 | > 100 | > 100 | > 100 | > 100 | > 100 | > 100 | – | – | – | – | – | – | – | – | – | –
O=C1C[C@H](CCC(=O)OCc2ccccc2)NC(=O)C[C@H](CCC(=O)OCc2ccccc2)NC(=O)C[C@H](CCC(=O)OCc2ccccc2)N1 | > 100 | > 100 | > 100 | 29 | > 100 | > 100 | > 100 | > 100 | > 100 | > 100 | – | – | – | – | – | – | – | – | – | –
CCOC(=O)c1c(CN2CCCC2)n(-c2ccccc2)c2cc(Br)c(OC)cc12 | – | > 100 | 38.3 | 78.3 | 35.3 | 25 | 27.5 | > 100 | 35.6 | 58.1 | – | – | – | – | – | – | – | – | – | –
COc1ccc(C2C(C=O)C(N3CCN(C)CC3)=Nc3nc4ccccc4n32)cc1 (configuration not stated) | 50.6 | 40.9 | 31.2 | – | 34.8 | 2.35 | 34.1 | 33.1 | 38.2 | 29.4 | – | – | – | – | – | – | – | – | – | –
Cn1c(=O)c2c(nc(NCCNc3nc4c(c(=O)n(C)c(=O)n4C)n3C)n2C)n(C)c1=O | > 100 | > 100 | > 100 | – | > 100 | > 100 | > 100 | > 100 | > 100 | > 100 | – | – | – | – | – | – | – | – | – | –
COc1ccc2nc3ccccc3c(NCc3ccc(C)cc3)c2c1 | 8.49 | 3.78 | 3.68 | 8.41 | 3.29 | 6.04 | 2.95 | 7.27 | 5.12 | 4.7 | 2.24 | 2.6 | 1.64 | 1.85 | 2.58 | 1.75 | 1.81 | 1.97 | 1.54 | 2.01
NC(CC(=O)O)(Cc1ccccc1)C(=O)O (configuration not stated) | > 100 | > 100 | > 100 | > 100 | > 100 | > 100 | > 100 | > 100 | > 100 | > 100 | – | – | – | – | – | – | – | – | – | –
CC(=O)C1=C(O)CCC1=O | > 100 | > 100 | > 100 | > 100 | > 100 | > 100 | > 100 | > 100 | > 100 | > 100 | – | – | – | – | – | – | – | – | – | –
